Like-named read-outs stand apart in the source and are kept apart here.

One assay concerns the target FGFR1 (UP) (Homo sapiens (Human), UniProt P11362). As to the kind of experiment: FGFR Enzymatic Assay, FGFR1 un-phosphorylated.
For the next assay, the target named is FGFR3 (UP) (Homo sapiens (Human), UniProt P22607). As to the kind of experiment: FGFR Enzymatic Assay, FGFR3 un-phosphorylated.
For a further assay, the target named is ALK2 (aa 147-end) (Homo sapiens (Human), UniProt Q04771). As to the kind of experiment: ALK2 HTRF Assay. It counts as biochemical. A general note: Time-resolved FRET reads energy transfer from a long-lived donor to a nearby acceptor.
The target of another assay is FGFR2 (UP) (Homo sapiens (Human), UniProt P21802). Nature of the assay: FGFR Enzymatic Assay, FGFR2 un-phosphorylated.
A further assay addresses ALK2 (Homo sapiens (Human), UniProt Q04771). As to the kind of experiment: ALK2 Cellular Assay (phospho SMAD1 HTRF, BMP-7 stimulated HeLa cells). The assay is classed as cell-based. The conditions noted are these: HeLa cells, 200 ng/ml BMP-7, Phospho SMAD1 (S463/S465) HTRF; read-out: ALK2 Cellular Assay PSMAD. The method in brief: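 HeLa cells pre-treated with compound (highest final 3 μM) for 60 min at 37° C, then stimulated with 200 ng/ml BMP-7 for 30 min. Phospho-SMAD1 (S463/S465) quantified by HTRF after overnight room-temperature incubation.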

Where [1] appears, read: read-out: ALK2 3 μM IC50, 3 uM ATP.
The mark [2] stands for this setting: read-out: ALK2 100 μM IC50, 100 uM ATP.
[3] abbreviates: read-out: ALK2 1 mM IC50, 1 mM ATP.

Chain of FGFR2 (UP) (P21802 22-821): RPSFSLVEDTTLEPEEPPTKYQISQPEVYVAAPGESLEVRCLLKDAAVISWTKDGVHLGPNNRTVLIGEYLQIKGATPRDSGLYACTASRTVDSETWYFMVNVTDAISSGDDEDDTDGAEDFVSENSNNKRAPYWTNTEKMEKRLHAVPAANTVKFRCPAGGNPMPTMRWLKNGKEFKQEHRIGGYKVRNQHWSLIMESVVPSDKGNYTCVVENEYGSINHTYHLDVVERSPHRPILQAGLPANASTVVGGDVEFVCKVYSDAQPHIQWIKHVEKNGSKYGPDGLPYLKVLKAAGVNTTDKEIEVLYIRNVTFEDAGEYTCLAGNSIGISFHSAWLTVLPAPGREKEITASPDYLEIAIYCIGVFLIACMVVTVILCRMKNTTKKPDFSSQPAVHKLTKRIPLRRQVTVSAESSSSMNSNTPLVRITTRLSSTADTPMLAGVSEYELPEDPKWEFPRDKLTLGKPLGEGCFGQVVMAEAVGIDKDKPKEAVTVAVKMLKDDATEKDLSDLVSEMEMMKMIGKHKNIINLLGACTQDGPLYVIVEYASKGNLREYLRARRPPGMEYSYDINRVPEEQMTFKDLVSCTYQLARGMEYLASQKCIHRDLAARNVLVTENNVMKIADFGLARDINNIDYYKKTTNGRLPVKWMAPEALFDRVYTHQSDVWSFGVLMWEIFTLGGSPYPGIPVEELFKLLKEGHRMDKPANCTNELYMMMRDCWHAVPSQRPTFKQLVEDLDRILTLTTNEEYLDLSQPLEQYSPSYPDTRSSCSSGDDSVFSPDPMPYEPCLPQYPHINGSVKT
Chain of ALK2 (Q04771 21-509): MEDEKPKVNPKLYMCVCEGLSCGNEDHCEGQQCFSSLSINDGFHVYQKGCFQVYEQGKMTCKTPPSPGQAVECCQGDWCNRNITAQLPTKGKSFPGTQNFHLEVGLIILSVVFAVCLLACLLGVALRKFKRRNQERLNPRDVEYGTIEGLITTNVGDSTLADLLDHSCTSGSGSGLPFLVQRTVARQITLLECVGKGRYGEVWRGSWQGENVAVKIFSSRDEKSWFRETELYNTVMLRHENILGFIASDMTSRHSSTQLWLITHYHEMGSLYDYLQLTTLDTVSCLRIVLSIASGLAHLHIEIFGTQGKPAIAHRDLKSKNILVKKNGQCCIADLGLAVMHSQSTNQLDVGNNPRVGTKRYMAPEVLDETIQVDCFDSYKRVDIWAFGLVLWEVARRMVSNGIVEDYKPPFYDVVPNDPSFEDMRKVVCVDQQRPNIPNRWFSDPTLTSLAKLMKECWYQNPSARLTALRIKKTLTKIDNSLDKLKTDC
Chain of FGFR3 (UP) (P22607 23-806): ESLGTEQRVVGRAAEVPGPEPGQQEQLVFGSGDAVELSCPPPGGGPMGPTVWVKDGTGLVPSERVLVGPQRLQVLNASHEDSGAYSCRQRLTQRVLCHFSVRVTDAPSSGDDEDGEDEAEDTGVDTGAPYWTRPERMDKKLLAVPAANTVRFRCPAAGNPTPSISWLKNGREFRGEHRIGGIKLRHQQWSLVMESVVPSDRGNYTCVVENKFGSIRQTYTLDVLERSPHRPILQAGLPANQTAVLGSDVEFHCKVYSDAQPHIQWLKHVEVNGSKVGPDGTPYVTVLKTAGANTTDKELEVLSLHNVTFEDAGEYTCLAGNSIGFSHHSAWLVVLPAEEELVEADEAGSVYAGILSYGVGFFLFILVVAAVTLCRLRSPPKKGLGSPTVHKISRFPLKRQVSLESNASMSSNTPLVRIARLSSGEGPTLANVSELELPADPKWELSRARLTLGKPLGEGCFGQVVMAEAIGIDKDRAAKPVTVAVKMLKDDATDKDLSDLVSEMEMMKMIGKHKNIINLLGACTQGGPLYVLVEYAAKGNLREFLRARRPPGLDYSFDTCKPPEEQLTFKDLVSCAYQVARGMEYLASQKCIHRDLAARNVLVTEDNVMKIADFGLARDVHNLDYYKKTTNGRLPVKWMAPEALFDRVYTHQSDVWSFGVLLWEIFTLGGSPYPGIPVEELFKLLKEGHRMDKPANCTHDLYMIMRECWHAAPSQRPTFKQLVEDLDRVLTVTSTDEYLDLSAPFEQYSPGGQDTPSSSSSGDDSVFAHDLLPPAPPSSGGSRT
Chain of ALK2 (aa 147-end) (Q04771 147-509): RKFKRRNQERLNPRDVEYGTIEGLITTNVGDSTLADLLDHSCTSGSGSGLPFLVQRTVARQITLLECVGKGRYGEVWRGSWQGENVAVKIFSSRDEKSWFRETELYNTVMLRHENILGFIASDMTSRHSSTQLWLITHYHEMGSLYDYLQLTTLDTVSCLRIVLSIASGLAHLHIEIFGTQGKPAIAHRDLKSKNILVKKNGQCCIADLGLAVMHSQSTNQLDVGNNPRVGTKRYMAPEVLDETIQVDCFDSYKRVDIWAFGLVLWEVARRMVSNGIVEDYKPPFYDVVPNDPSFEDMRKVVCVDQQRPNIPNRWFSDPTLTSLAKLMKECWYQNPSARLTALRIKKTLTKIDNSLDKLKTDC
Chain of FGFR1 (UP) (P11362 22-822): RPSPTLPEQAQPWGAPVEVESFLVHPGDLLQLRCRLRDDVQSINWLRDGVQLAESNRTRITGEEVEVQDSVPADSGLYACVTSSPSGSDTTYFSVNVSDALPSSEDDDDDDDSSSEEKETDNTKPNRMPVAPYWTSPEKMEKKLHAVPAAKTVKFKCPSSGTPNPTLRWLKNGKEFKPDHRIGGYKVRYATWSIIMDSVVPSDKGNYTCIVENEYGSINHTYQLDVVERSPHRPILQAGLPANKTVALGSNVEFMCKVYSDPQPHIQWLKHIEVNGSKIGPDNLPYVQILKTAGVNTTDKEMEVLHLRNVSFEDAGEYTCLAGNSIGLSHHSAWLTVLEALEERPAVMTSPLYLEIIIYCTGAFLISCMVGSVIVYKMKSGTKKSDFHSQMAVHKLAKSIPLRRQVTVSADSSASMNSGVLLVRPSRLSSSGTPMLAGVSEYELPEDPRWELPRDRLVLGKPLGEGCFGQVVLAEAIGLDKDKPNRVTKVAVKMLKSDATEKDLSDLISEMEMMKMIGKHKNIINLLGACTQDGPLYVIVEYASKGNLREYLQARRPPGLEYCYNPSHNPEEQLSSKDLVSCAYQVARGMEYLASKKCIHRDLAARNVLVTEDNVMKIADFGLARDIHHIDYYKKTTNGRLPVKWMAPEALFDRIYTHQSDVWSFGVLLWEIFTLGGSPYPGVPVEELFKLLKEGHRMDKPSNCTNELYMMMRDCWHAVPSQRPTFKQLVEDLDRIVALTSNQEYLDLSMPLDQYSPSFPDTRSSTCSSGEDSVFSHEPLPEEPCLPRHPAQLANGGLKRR
Protocol for FGFR1 (UP): (§1) The inhibitor potency of the exemplified compounds was determined in an enzyme discontinuous assay that measures peptide phosphorylation using FRET measurements to detect product formation. Inhibitors were serially diluted in DMSO and a volume of 0.2 μL was transferred to the wells of a 384-well plate. For the isoforms of FGFR (−1, −2, −3 wild-type and mutant isoforms, −4) including phosphorylated (P) and un-phosphorylated (UP) proteins, a 5 μL/well volume of enzyme diluted in assay buffer (50 mM HEPES, 10 mM MgCl2, 1 mM EGTA, 0.01% Tween-20, 5 mM DTT, pH 7.5) was added to the plate and pre-incubated with inhibitor for 5 to 15 minutes at ambient temperature. Appropriate controls (enzyme blank and enzyme with no inhibitor) were included on the plate. The reaction was initiated by the addition of a 5 μL/well volume containing both biotinylated [sequence] […] The plate was allowed to equilibrate for −10 minutes at ambient temperature before scanning on a PheraStar plate reader (BMG Labtech) instrument.
(§2) Either GraphPad prism or XLfit was used to analyze the data. The IC50 values were derived by fitting the data to a four parameter logistic equation producing a sigmoidal dose-response curve with a variable Hill coefficient. Prism equation: Y=Bottom+(Top−Bottom)/(1+10^((LogIC50−X)*Hill slope)); XLfit equation: Y=(A+((B−A)/(1+((X/C)^D)))) where X is the logarithm of inhibitor concentration and Y is the response.
Protocol for FGFR2 (UP): as §1, §2

Take `C[C@@H]1CN(c2ccc(-c3n[nH]c4cnc(N5C6CCC5CC6)nc34)cn2)CCN1` [Example 3, 5-(7-Azabicyclo[2.2.1]heptan-7-yl)-3-(6-((R)-3-methylpiperazin-1-yl)pyridin-3-yl)-1H-pyrazolo[4,3-d]pyrimidine]: the IC50 is 500 to 2000 nM at FGFR1 (UP); 100 to 500 nM against FGFR3 (UP); 100 to 500 nM at ALK2 (aa 147-end) (ALK2 1 mM IC50, 1 mM ATP); below 100 nM on ALK2 (aa 147-end) (setting [1]); below 100 nM on ALK2 (aa 147-end) (setting [2]); 100 to 500 nM at FGFR2 (UP). Further, the IC50 at ALK2 is 100 to 500 nM.

Consider `COCC(=O)N1C[C@@H](C)N(c2ncc3[nH]nc(-c4ccc(N5CCN[C@H](C)C5)nc4)c3n2)[C@@H](C)C1` [Example 6, 1-((3R,5S)-3,5-Dimethyl-4-(3-(6-((R)-3-methylpiperazin-1-yl)pyridin-3-yl)-1H-pyrazolo[4,3-d]pyrimidin-5-yl)piperazin-1-yl)-2-methoxyethan-1-one], for which the IC50 is above 2000 nM on FGFR1 (UP) (read-out: FGFR1 (UP) IC50, un-phosphorylated enzyme, ATP near or below Km); 500 to 2000 nM on FGFR3 (UP); below 100 nM on ALK2 (aa 147-end) (setting [1]); below 100 nM on ALK2 (aa 147-end) (setting [2]); below 100 nM on ALK2 (aa 147-end) (setting [3]); 500 to 2000 nM at FGFR2 (UP). Further, the IC50 on ALK2 fell in the range of 100 to 500 nM.

In the case of `C[C@@H]1CN(c2ccc(-c3n[nH]c4cnc(N5[C@H](C)CN(C(=O)N6CCC(F)C6)C[C@@H]5C)nc34)cn2)CCN1` (stereo partly drawn) [Example 10, ((3R,5S)-3,5-Dimethyl-4-(3-(6-((R)-3-methylpiperazin-1-yl)pyridin-3-yl)-1H-pyrazolo[4,3-d]pyrimidin-5-yl)piperazin-1-yl)(3-fluoropyrrolidin-1-yl)methanone], the IC50 on FGFR1 (UP) is 500 to 2000 nM; against FGFR3 (UP) it was 500 to 2000 nM; at ALK2 (aa 147-end) (setting [1]), below 100 nM; on ALK2 (aa 147-end) (setting [2]), below 100 nM; on ALK2 (aa 147-end) (setting [3]) it was below 100 nM; against FGFR2 (UP), 500 to 2000 nM. Further, the IC50 at ALK2 was below 100 nM.

Regarding `CCOC(=O)N1C[C@@H](C)N(c2ncc3[nH]nc(-c4ccc(N5CCN[C@H](C)C5)nc4)c3n2)[C@@H](C)C1` [Example 11, Ethyl (3R,5S)-3,5-dimethyl-4-(3-(6-((R)-3-methylpiperazin-1-yl)pyridin-3-yl)-1H-pyrazolo[4,3-d]pyrimidin-5-yl)piperazine-1-carboxylate], the IC50 was 500 to 2000 nM at FGFR1 (UP); 500 to 2000 nM against FGFR3 (UP); below 100 nM at ALK2 (aa 147-end) (setting [1]); below 100 nM at ALK2 (aa 147-end) (setting [2]); below 100 nM at ALK2 (aa 147-end) (setting [3]); 500 to 2000 nM against FGFR2 (UP). Also, on ALK2, the IC50 fell in the range of 100 to 500 nM.

Turning to `C[C@@H]1CN(c2ccc(-c3n[nH]c4cnc(N5[C@H](C)CN(C(=O)OCCF)C[C@@H]5C)nc34)cn2)CCN1` [Example 12, 2-Fluoroethyl (3R,5S)-3,5-dimethyl-4-(3-(6-((R)-3-methylpiperazin-1-yl)pyridin-3-yl)-1H-pyrazolo[4,3-d]pyrimidin-5-yl)piperazine-1-carboxylate], the IC50 at FGFR1 (UP) was 500 to 2000 nM; on FGFR3 (UP), 100 to 500 nM; on ALK2 (aa 147-end) (setting [1]) it was below 100 nM; at ALK2 (aa 147-end) (setting [2]), below 100 nM; at ALK2 (aa 147-end) (setting [3]) it was below 100 nM; against FGFR2 (UP), 100 to 500 nM. At ALK2, the IC50 was below 100 nM.

Take `COC(=O)N1C[C@@H](C)N(c2ncc3[nH]nc(-c4ccc(N5CCN[C@H](C)C5)nc4)c3n2)[C@@H](C)C1` [Example 17, Methyl (3R,5S)-3,5-dimethyl-4-(3-(6-((R)-3-methylpiperazin-1-yl)pyridin-3-yl)-1H-pyrazolo[4,3-d]pyrimidin-5-yl)piperazine-1-carboxylate]: the IC50 on FGFR3 (UP) (read-out: FGFR3 (UP) IC50, un-phosphorylated enzyme, ATP near or below Km) was below 100 nM; on ALK2 (aa 147-end) (setting [1]) it was below 100 nM; on ALK2 (aa 147-end) (setting [2]) it was below 100 nM; at ALK2 (aa 147-end) (setting [3]) it was below 100 nM; at FGFR2 (UP) (read-out: FGFR2 (UP) IC50, un-phosphorylated enzyme, ATP near or below Km), below 100 nM; at ALK2, below 100 nM.

The values above are taken from patent publication US11111247B2, “Pyrazolopyrimidine compounds and uses thereof” (Incyte Corporation, priority 2018, dated 2021).
